Where no end group is shown, it is not given here. [ ]: non-standard residue; d: D form. pGlu = O=C1CC[C@@H](C(=O)O)N1
Tests used:
Format in all cases: cell-based, human
Patient 6 TCC-01 = assay: IFN-γ ELISpot with T cell clone; conditions: TCC Patient 6 TCC-01 (Table 5); mean no antigen 2
Procedure: (§1) Peripheral blood mononuclear cells (PBMC) were isolated from heparinized whole blood using Ficoll-Paque™ Plus density-gradient centrifugation (GE Healthcare). IFN-γ ELISpot (Mabtech) was set up as previously described^8.
(§2) Isolation of TCC from CD patients was carried out as previously described^8. Briefly, CFSE-labeled PBMC were incubated with antigen for 7 days in IMDM supplemented with 5% heat-inactivated pooled human serum (PHS), 2 mM GlutaMAX™, 100 μM MEM non-essential amino acids (both from Gibco, Invitrogen), and 50 μM 2-mercaptoethanol (Sigma). Proliferated cells were single-cell sorted into 96-well plates containing IL-2, IL-4, anti-CD3 mAb, irradiated feeder cells (allogeneic PBMC and JY-EBV). TCC were expanded and maintained in IL-2 and IL-4 and tested for specificity by ELISpot with irradiated HLA-matched PBMC as antigen-presenting cells. Expanded clones were tested for HLA-DQ restriction, TCR Vbeta usage, and with lysine scans to work out minimal epitopes. See Table 1 below for TCC and epitope information.

Patient 2 TCC-01 = assay: IFN-γ ELISpot with T cell clone; conditions: TCC Patient 2 TCC-01 (Table 5); mean no antigen 1.1
Procedure: as §1, §2

Patient 14 TCC-01 = assay: IFN-γ ELISpot with T cell clone; conditions: TCC Patient 14 TCC-01 (Table 5); mean no antigen 11.3, high background, SFU >25 considered as positive responses
Procedure: as §1, §2

PBMC [1] = assay: IFN-γ ELISpot on PBMC of CD patients after 3-day barley challenge; conditions: after barley challenge
Excerpt: (§3) Australian Caucasian HLA-DQ2.5^+ and/or HLA-DQ8^+ CD subjects were recruited by advertisement in the Coeliac Society of Victoria newsletter and all had biopsy-proven CD conforming to ESPGHAN criteria. Patients had been on strict gluten free diet for at least 4 weeks prior to commencing grain challenge. Patients underwent 3-day grain challenge with oats, barley, or combined wheat, barley, and rye muffins, and 6 days after commencement, blood was collected. Day 0 responses were not observed in the selection of patients tested, as described previously^8.
(§4) Oats challenge consisted of 100 g dry weight daily of one of three commercial brands of oats: one not tested for wheat contamination (Uncle Toby's; Oats #1), and two shown by R5 ELISA to contain less than 20 ppm wheat gluten (Tilquhilie Pudding; Oats #2 and Freedom Food; Oats #3). Barley challenge consisted of pearl barley (Ward McKenzie) cooked into a risotto (150 g dry weight daily) and the wheat challenge consisted of four 50 g slices of wheat bread daily (Baker's Delight white loaf cut to toasting thickness). The combined wheat, barley, and rye challenge consisted of muffins baked with wheat flour (White Wings), barley flour (Four Leaf Milling), and rye flour (Four Leaf Milling; 22-25 g dry weight each daily). A symptom diary based on a […] Likert scale was completed by participants daily from baseline until day 6.
(§5) Two avenin peptide libraries were utilized for epitope screening. These were designed using avenin sequences from GenBank and a customized algorithm, as previously described^9. The initial library consisted of 199 screening-grade 20 mers including all possible 12 mers (Mimotopes). This library was screened with and without tTG pre-treatment. The second library consisted of additional avenin sequences that were synthesized with glutamate substitution at sites predicted to be deamidated by published algorithms^10, 11 removing the requirement for tTG treatment. This library contained 369 screening-grade 20 mers, including all possible 12 mers (Pepscan). The second round avenin library contained wild-type and deamidated versions of the most immunogenic sequences (25 high quality 16 mers from Mimotopes). High quality peptides containing previously described immunogenic sequences from wheat, barley, and rye were used to test for cross-reactivity^8 (Pepscan). High quality hordein and avenin peptides for TCC testing and biochemical studies were ordered from Pepscan, Mimotopes, or GL Biochem.
as §1

PBMC [2] = assay: IFN-γ ELISpot on PBMC of CD patients on day 6 after 3-day oats challenge
Excerpt: as §3, §4, §5, §1

[3] = patient P2, peptide 100 μg/ml, after 3-day oats challenge

“PQPFPEQPIPEQPQPY [barley peptide, 1103203A (27-42) [Q32 to E, Q37 to E]]” was tested, and the “IFN-γ ELISpot response (raw SFU)” value (Patient 6 TCC-01) was 60 SFU, the “IFN-γ ELISpot response (raw SFU)” value (Patient 2 TCC-01) was 1 SFU and the “IFN-γ ELISpot response (raw SFU)” value (Patient 14 TCC-01) was 38 SFU.
In the case of “PQPYPEQPQPFPQQPP [barley peptide, 1103203B (39-54) [Q44 to E]]”, the “IFN-γ ELISpot response (raw SFU)” value (Patient 6 TCC-01) is reported as 69 SFU, the “IFN-γ ELISpot response (raw SFU)” value (Patient 2 TCC-01) is reported as 292 SFU and the “IFN-γ ELISpot response (raw SFU)” value (Patient 14 TCC-01) is reported as 12 SFU.
“PSEQYQPYPEQEQPILQQEE [avenin library peptide]” was tested, and the “IFN-γ ELISpot response (raw SFU)” value (PBMC [1]; Patient 1, peptide 50 μg/ml) was 27 SFU, the “significant SFU as a percentage of maximal peptide SFU” value (“significant SFU as a percentage” for short) (PBMC [1]; Patient 1, peptide 50 μg/ml) was “(^: 5-10%)” and the “IFN-γ ELISpot response (raw SFU)” value (PBMC [1]; Patient 2, peptide 50 μg/ml) was 159 SFU. The “significant SFU as a percentage” value (PBMC [1]; Patient 2, peptide 50 μg/ml) was “*** (***: >70%)” and the “IFN-γ ELISpot response (raw SFU)” value (PBMC [1]; Patient 3, peptide 50 μg/ml) was 7 SFU.
With “QPYPEQEQPILEEELLLQQQ [oats avenin peptide, CBL51491.1 (22-41) [Q28, Q33, Q34, Q35 to E]; one of two coded A01]” the “IFN-γ ELISpot response (raw SFU)” value (Patient 6 TCC-01) was 16 SFU and the “IFN-γ ELISpot response (raw SFU)” value (Patient 2 TCC-01) was 275 SFU.
With “QYQPYPEQEQPILQQ [partially deamidated avenin peptide]” the “patients in which the peptide was the most immunogenic” value (PBMC [2]; oats responders after 3-day oats challenge) was 5 patients.
“SEQYQPYPEQEQPFLQEQPL [avenin library peptide]” was tested, and the “IFN-γ ELISpot response (raw SFU)” value (PBMC [1]; Patient 1, peptide 50 μg/ml) was 122 SFU, the “significant SFU as a percentage” value (PBMC [1]; Patient 1, peptide 50 μg/ml) was “* (*: 20-40%)” and the “IFN-γ ELISpot response (raw SFU)” value (PBMC [1]; Patient 2, peptide 50 μg/ml) was 208 SFU. The “significant SFU as a percentage” value (PBMC [1]; Patient 2, peptide 50 μg/ml) was “*** (***: >70%)”, the “IFN-γ ELISpot response (raw SFU)” value (PBMC [1]; Patient 3, peptide 50 μg/ml) was 34 SFU and the “significant SFU as a percentage” value (PBMC [1]; Patient 3, peptide 50 μg/ml) was “* (*: 20-40%)”.
“SEQYQPYPEQQEPFVQ [avenin peptide of Genbank Q09097.1, wild-type]” was tested, and the “IFN-γ ELISpot response (raw SFU)” value (PBMC [2]; patient P1, peptide 1 μg/ml, after 3-day oats challenge) was 3 SFU, the “IFN-γ ELISpot response (raw SFU)” value (PBMC [2]; patient P1, peptide 10 μg/ml, after 3-day oats challenge) was 5 SFU and the “IFN-γ ELISpot response (raw SFU)” value (PBMC [2]; patient P1, peptide 100 μg/ml, after 3-day oats challenge) was 3 SFU. The “IFN-γ ELISpot response (raw SFU)” value (PBMC [2]; patient P2, peptide 1 μg/ml, after 3-day oats challenge) was 3 SFU, the “IFN-γ ELISpot response (raw SFU)” value (PBMC [2]; patient P2, peptide 10 μg/ml, after 3-day oats challenge) was 3 SFU and the “IFN-γ ELISpot response (raw SFU)” value (PBMC [2]; [3]) was 16 SFU. For the same substance, the “significant SFU as a percentage” value (PBMC [2]; [3]) was “* (*: 20-40%)”, the “IFN-γ ELISpot response (raw SFU)” value (PBMC [2]; patient P3, peptide 1 μg/ml, after 3-day oats challenge) was 8 SFU and the “IFN-γ ELISpot response (raw SFU)” value (PBMC [2]; patient P3, peptide 10 μg/ml, after 3-day oats challenge) was 9 SFU. For the same substance, the “IFN-γ ELISpot response (raw SFU)” value (PBMC [2]; patient P3, peptide 100 μg/ml, after 3-day oats challenge) was 4 SFU, the “IFN-γ ELISpot response (raw SFU)” value (PBMC [2]; patient P11, peptide 1 μg/ml, after 3-day oats challenge) was 0 SFU and the “IFN-γ ELISpot response (raw SFU)” value (PBMC [2]; patient P11, peptide 10 μg/ml, after 3-day oats challenge) was 0 SFU. For the same substance, the “IFN-γ ELISpot response (raw SFU)” value (PBMC [2]; patient P11, peptide 100 μg/ml, after 3-day oats challenge) was 0 SFU, the “IFN-γ ELISpot response (raw SFU)” value (PBMC [2]; patient P12, peptide 1 μg/ml, after 3-day oats challenge) was 1 SFU and the “IFN-γ ELISpot response (raw SFU)” value (PBMC [2]; patient P12, peptide 10 μg/ml, after 3-day oats challenge) was 3 SFU. For the same substance, the “IFN-γ ELISpot response (raw SFU)” value (PBMC [2]; patient P12, peptide 100 μg/ml, after 3-day oats challenge) was 0 SFU and the “IFN-γ ELISpot response (raw SFU)” value (PBMC [2]; patient P13, peptide 50 μg/ml, after 3-day oats challenge) was 9 SFU.
With “pEPEQIIPEQPEQPS ([pGlu]PEQIIPEQPEQPS) [rye peptide, AAB58403.1 (195-208) [Q195 to pyroglutamate, Q202 to E, Q205 to E], reference compound]” the “IFN-γ ELISpot response (raw SFU)” value (Patient 6 TCC-01) was 3 SFU, the “IFN-γ ELISpot response (raw SFU)” value (Patient 2 TCC-01) was 2 SFU and the “IFN-γ ELISpot response (raw SFU)” value (Patient 14 TCC-01) was 59 SFU.
In the case of “pEPEQPFPEQPQQII ([pGlu]PEQPFPEQPQQII) [rye peptide, AAB58403.1 (187-200) [Q187 to pyroglutamate, Q189 to E, Q194 to E], reference compound]”, the “IFN-γ ELISpot response (raw SFU)” value (Patient 6 TCC-01) is reported as 0 SFU, the “IFN-γ ELISpot response (raw SFU)” value (Patient 2 TCC-01) is reported as 0 SFU and the “IFN-γ ELISpot response (raw SFU)” value (Patient 14 TCC-01) is reported as 58 SFU.
